US12606541B2, “PPARg modulators and methods of use” (Eisai R&D Management Co., Ltd., priority 2020, dated 2026)

Target: T1, His6-TEV-PPARγ-(234-505) (Homo sapiens, UniProt P37231)
T1 construct: The His6-TEV-PPARγ-(234-505) protein for assay was expressed and purified; TEV cleavage site (N); made in house
T1 sequence (P37231 234-505): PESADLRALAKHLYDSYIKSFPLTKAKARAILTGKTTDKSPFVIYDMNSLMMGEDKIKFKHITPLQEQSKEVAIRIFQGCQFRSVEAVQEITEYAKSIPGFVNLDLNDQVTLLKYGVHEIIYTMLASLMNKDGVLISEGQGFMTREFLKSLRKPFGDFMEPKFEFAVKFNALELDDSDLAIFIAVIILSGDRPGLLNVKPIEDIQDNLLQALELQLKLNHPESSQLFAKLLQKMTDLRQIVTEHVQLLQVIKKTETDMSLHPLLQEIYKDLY
Test: TR-FRET Assay to Measure Co-R Peptide Recruitment to PPARγ
Type: biochemical
Details: Co-R peptide recruitment to PPARγ; read-out: TR-FRET AC50
In short: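 His-tagged PPARγ (or controls) was preincubated with compound for 20 minutes at room temperature, then 5 nM anti-His terbium antibody and 200 nM FITC-labeled SMRT-ID2 corepressor peptide (final) were added for a further hour. TR-FRET signal was normalized to percent response using 500 nM T0070907 and DMSO controls.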

AC50, > 1 µM:
COc1cc(-c2cc(C(=O)N3CCC(C(=O)Nc4ccc(CS(C)(=O)=O)cc4)CC3)n[nH]2)c(Cl)cn1 [1-[5-(5-chloro-2-methoxypyridin-4-yl)-1H-pyrazole-3-carbonyl]-N-[4-(methanesulfonylmethyl)phenyl]piperidine-4-carboxamide]
COc1cc(-c2cc(C(=O)N3CCC(C(=O)Nc4cc(C(F)(F)F)ccn4)CC3)n[nH]2)c(Cl)cn1 [1-[5-(5-chloro-2-methoxypyridin-4-yl)-1H-pyrazole-3-carbonyl]-N-[4-(trifluoromethyl)pyridin-2-yl]piperidine-4-carboxamide]
COc1cc(-c2cc(C(=O)N3CCC(C(=O)Nc4ncc(C(C)C)s4)CC3)n[nH]2)c(Cl)cn1 [1-[5-(5-chloro-2-methoxypyridin-4-yl)-1H-pyrazole-3-carbonyl]-N-[5-(propan-2-yl)-1,3-thiazol-2-yl]piperidine-4-carboxamide]
COc1cc(-c2cc(C(=O)N3CCC(C(=O)NCc4ncon4)CC3)n[nH]2)c(Cl)cn1 [1-[5-(5-chloro-2-methoxypyridin-4-yl)-1H-pyrazole-3-carbonyl]-N-[(1,2,4-oxadiazol-3-yl)methyl]piperidine-4-carboxamide]
COc1cc(-c2cc(C(=O)N3CCC(C(=O)NCc4ccon4)CC3)n[nH]2)c(Cl)cn1 [1-[5-(5-chloro-2-methoxypyridin-4-yl)-1H-pyrazole-3-carbonyl]-N-[(1,2-oxazol-3-yl)methyl]piperidine-4-carboxamide]
COc1cc(-c2cc(C(=O)N3CCC(C(=O)NCc4c(C)nn(C)c4C)CC3)n[nH]2)c(Cl)cn1 [1-[5-(5-chloro-2-methoxypyridin-4-yl)-1H-pyrazole-3-carbonyl]-N-[(1,3,5-trimethyl-1H-pyrazol-4-yl)methyl]piperidine-4-carboxamide]
COc1cc(-c2cc(C(=O)N3CCC(C(=O)NCC4OCCCO4)CC3)n[nH]2)c(Cl)cn1 [1-[5-(5-chloro-2-methoxypyridin-4-yl)-1H-pyrazole-3-carbonyl]-N-[(1,3-dioxan-2-yl)methyl]piperidine-4-carboxamide]
COc1cc(-c2cc(C(=O)N3CCC(C(=O)NCC4CCOCO4)CC3)n[nH]2)c(Cl)cn1 (stereo not shown) [1-[5-(5-chloro-2-methoxypyridin-4-yl)-1H-pyrazole-3-carbonyl]-N-[(1,3-dioxan-4-yl)methyl]piperidine-4-carboxamide]
COc1cc(-c2cc(C(=O)N3CCC(C(=O)NCC4OCCO4)CC3)n[nH]2)c(Cl)cn1 [1-[5-(5-chloro-2-methoxypyridin-4-yl)-1H-pyrazole-3-carbonyl]-N-[(1,3-dioxolan-2-yl)methyl]piperidine-4-carboxamide]
COc1cc(-c2cc(C(=O)N3CCC(C(=O)NCc4ncco4)CC3)n[nH]2)c(Cl)cn1 [1-[5-(5-chloro-2-methoxypyridin-4-yl)-1H-pyrazole-3-carbonyl]-N-[(1,3-oxazol-2-yl)methyl]piperidine-4-carboxamide]
COc1cc(-c2cc(C(=O)N3CCC(C(=O)NCc4cnco4)CC3)n[nH]2)c(Cl)cn1 [1-[5-(5-chloro-2-methoxypyridin-4-yl)-1H-pyrazole-3-carbonyl]-N-[(1,3-oxazol-5-yl)methyl]piperidine-4-carboxamide]
COc1cc(-c2cc(C(=O)N3CCC(C(=O)NCC4COCCO4)CC3)n[nH]2)c(Cl)cn1 (stereo not shown) [1-[5-(5-chloro-2-methoxypyridin-4-yl)-1H-pyrazole-3-carbonyl]-N-[(1,4-dioxan-2-yl)methyl]piperidine-4-carboxamide]
COc1cc(-c2cc(C(=O)N3CCC(C(=O)NCC4(C#N)CC4)CC3)n[nH]2)c(Cl)cn1 [1-[5-(5-chloro-2-methoxypyridin-4-yl)-1H-pyrazole-3-carbonyl]-N-[(1-cyanocyclopropyl)methyl]piperidine-4-carboxamide]
COc1cc(-c2cc(C(=O)N3CCC(C(=O)NCC4(O)CCC4)CC3)n[nH]2)c(Cl)cn1 [1-[5-(5-chloro-2-methoxypyridin-4-yl)-1H-pyrazole-3-carbonyl]-N-[(1-hydroxycyclobutyl)methyl]piperidine-4-carboxamide]
COc1cc(-c2cc(C(=O)N3CCC(C(=O)NCC4(O)CC4)CC3)n[nH]2)c(Cl)cn1 [1-[5-(5-chloro-2-methoxypyridin-4-yl)-1H-pyrazole-3-carbonyl]-N-[(1-hydroxycyclopropyl)methyl]piperidine-4-carboxamide]
COc1cc(-c2cc(C(=O)N3CCC(C(=O)NCc4nccn4C)CC3)n[nH]2)c(Cl)cn1 [1-[5-(5-chloro-2-methoxypyridin-4-yl)-1H-pyrazole-3-carbonyl]-N-[(1-methyl-1H-imidazol-2-yl)methyl]piperidine-4-carboxamide]
COc1cc(-c2cc(C(=O)N3CCC(C(=O)NCc4cn(C)cn4)CC3)n[nH]2)c(Cl)cn1 [1-[5-(5-chloro-2-methoxypyridin-4-yl)-1H-pyrazole-3-carbonyl]-N-[(1-methyl-1H-imidazol-4-yl)methyl]piperidine-4-carboxamide]
COc1cc(-c2cc(C(=O)N3CCC(C(=O)NCc4ccn(C)n4)CC3)n[nH]2)c(Cl)cn1 [1-[5-(5-chloro-2-methoxypyridin-4-yl)-1H-pyrazole-3-carbonyl]-N-[(1-methyl-1H-pyrazol-3-yl)methyl]piperidine-4-carboxamide]
COc1cc(-c2cc(C(=O)N3CCC(C(=O)NCC4CC(=O)N(C)C4)CC3)n[nH]2)c(Cl)cn1 (stereo not shown) [1-[5-(5-chloro-2-methoxypyridin-4-yl)-1H-pyrazole-3-carbonyl]-N-[(1-methyl-5-oxopyrrolidin-3-yl)methyl]piperidine-4-carboxamide]
COc1cc(-c2cc(C(=O)N3CCC(C(=O)NCC4CN(C)C4)CC3)n[nH]2)c(Cl)cn1 [1-[5-(5-chloro-2-methoxypyridin-4-yl)-1H-pyrazole-3-carbonyl]-N-[(1-methylazetidin-3-yl)methyl]piperidine-4-carboxamide]
COc1cc(-c2cc(C(=O)N3CCC(C(=O)NCc4ccc5[nH]ncc5c4)CC3)n[nH]2)c(Cl)cn1 [1-[5-(5-chloro-2-methoxypyridin-4-yl)-1H-pyrazole-3-carbonyl]-N-[(1H-indazol-5-yl)methyl]piperidine-4-carboxamide]
COc1cc(-c2cc(C(=O)N3CCC(C(=O)NCc4c(F)ccc(C)c4F)CC3)n[nH]2)c(Cl)cn1 [1-[5-(5-chloro-2-methoxypyridin-4-yl)-1H-pyrazole-3-carbonyl]-N-[(2,6-difluoro-3-methylphenyl)methyl]piperidine-4-carboxamide]
COc1cc(-c2cc(C(=O)N3CCC(C(=O)NCc4ccccc4C#N)CC3)n[nH]2)c(Cl)cn1 [1-[5-(5-chloro-2-methoxypyridin-4-yl)-1H-pyrazole-3-carbonyl]-N-[(2-cyanophenyl)methyl]piperidine-4-carboxamide]
COc1cc(-c2cc(C(=O)N3CCC(C(=O)NCC4(C)OCCO4)CC3)n[nH]2)c(Cl)cn1 [1-[5-(5-chloro-2-methoxypyridin-4-yl)-1H-pyrazole-3-carbonyl]-N-[(2-methyl-1,3-dioxolan-2-yl)methyl]piperidine-4-carboxamide]
COc1cc(-c2cc(C(=O)N3CCC(C(=O)NCc4ccc5c(c4)CN(C)C5)CC3)n[nH]2)c(Cl)cn1 [1-[5-(5-chloro-2-methoxypyridin-4-yl)-1H-pyrazole-3-carbonyl]-N-[(2-methyl-2,3-dihydro-1H-isoindol-5-yl)methyl]piperidine-4-carboxamide]
COc1cc(-c2cc(C(=O)N3CCC(C(=O)NCC4(C)CCCO4)CC3)n[nH]2)c(Cl)cn1 (stereo not shown) [1-[5-(5-chloro-2-methoxypyridin-4-yl)-1H-pyrazole-3-carbonyl]-N-[(2-methyloxolan-2-yl)methyl]piperidine-4-carboxamide]
COc1cc(-c2cc(C(=O)N3CCC(C(=O)N[C@@H]4C[C@@H](C)Oc5ccccc54)CC3)n[nH]2)c(Cl)cn1 [1-[5-(5-chloro-2-methoxypyridin-4-yl)-1H-pyrazole-3-carbonyl]-N-[(2R,4R)-2-methyl-3,4-dihydro-2H-1-benzopyran-4-yl]piperidine-4-carboxamide]
COc1cc(-c2cc(C(=O)N3CCC(C(=O)NCC4OCC4(C)C)CC3)n[nH]2)c(Cl)cn1 (stereo not shown) [1-[5-(5-chloro-2-methoxypyridin-4-yl)-1H-pyrazole-3-carbonyl]-N-[(3,3-dimethyloxetan-2-yl)methyl]piperidine-4-carboxamide]
COc1cc(-c2cc(C(=O)N3CCC(OCC(F)(F)F)(C(=O)NCc4cccc(Cl)c4)CC3)n[nH]2)c(Cl)cn1 [1-[5-(5-chloro-2-methoxypyridin-4-yl)-1H-pyrazole-3-carbonyl]-N-[(3-chlorophenyl)methyl]-4-(2,2,2-trifluoroethoxy)piperidine-4-carboxamide]
COc1cc(-c2cc(C(=O)N3CCC(CO)(C(=O)NCc4cccc(Cl)c4)CC3)n[nH]2)c(Cl)cn1 [1-[5-(5-chloro-2-methoxypyridin-4-yl)-1H-pyrazole-3-carbonyl]-N-[(3-chlorophenyl)methyl]-4-(hydroxymethyl)piperidine-4-carboxamide]
COCC1(C(=O)NCc2cccc(Cl)c2)CCN(C(=O)c2cc(-c3cc(OC)ncc3Cl)[nH]n2)CC1 [1-[5-(5-chloro-2-methoxypyridin-4-yl)-1H-pyrazole-3-carbonyl]-N-[(3-chlorophenyl)methyl]-4-(methoxymethyl)piperidine-4-carboxamide]
